The source of these data is patent US20080038277A1, “Dna Pkinase Inhibitors For Treating Cancer And Diabetes” (priority 2004, published 2008).

The subject of one test is PKB. The conditions noted are these: cisplatin treatment (ref. 32); cited from earlier work.
For a further test, the system named is DNA-PK. The settings on record: through proteolytic degradation of DNA-PK (ref. 31); cited from earlier work.
The target in the next test is T1, purified DNA-PK (Homo sapiens, UniProt P78527).
T1 construct: purified DNA-PK (from HeLa cells and human placenta) was tested; purchased Promega; host or cells: HeLa cells and human placenta
The test is described as follows: Purified DNA-PK phosphorylation of PKB (FSY peptide / GST-PKBα419-480). The settings on record: FSY peptide and GST-PKBα419-480; staurosporine 5 μM (FIGS. 2A and B). It counts as biochemical. How it is done:
FIG. 2. DNA-PK phosphorylates and activates PKB in vitro. (A) Purified DNA-PK (Promega) (25 units) was assayed with 0.1 mg/ml of FSY, FAY and DNA-PK p53 substrate peptide (CTL) in the presence (+) or absence (−) of DNA. […]; aliquots of the reaction mixture were removed for assay of PKB activity as described in FIG. 1D or for Western blotting with pS473 and pT308 phospho-specific antibodies. (D) GST-PKBα419-480 and His-p53 (each 1 μg) were incubated with 25 units of purified DNA-PK and 100 μM [γ-32P]ATP in kinase buffer (11). The reactions were terminated and analyzed on 10% SDS-PAGE followed by autoradiography or 32P determination in excised gel slices.
An antibody specific for PKB phosphorylated on Thr-308 (pT308) was purchased from Cell Signaling Technologies. An antibody specific for PKB phosphorylated on Ser-473 (pS473) was produced and purified as previously described (33). Polyclonal anti-PKB antibody (antibody10) (34) and monoclonal anti-PKB (A4D6) (35) have been described previously. Anti-Ku80, and anti-Ku 70 antibodies were purchased from Transduction Labs. Anti-DNA-PKcs (monoclonal G4) was from Santa Cruz Inc. Double-stranded fetal calf thymus DNA was from Sigma, and purified human DNA-PK protein and p53 substrate peptide […] (36) from Promega. […]

The next test deals with T2, S473K1 (Homo sapiens, UniProt P78527).
T2 construct: purification and identification of this kinase from HEK293 cells; endogenous in cells; host or cells: HEK293 crude membrane fraction, purified over Q-Sepharose, Mono S and Mono Q
The test is described as follows: S473K1 (Mono Q fraction 27) kinase assay with FSY peptide plus DNA, or GST-PKBα419-480 and pS473 Western blot. It is filed as biochemical. The settings on record: LY294002 5 μM, wortmannin 2 μM, staurosporine 5 μM; FSY peptide in presence of DNA and GST-PKBα419-480 (FIGS. 1E and F). As for the experimental part:
FIG. 1. Identification and purification of S473K. (A-C) Mono Q fractions were assayed for S473K activity with the FSY (solid) or FAY peptides (open) in the presence (triangles) or absence (circles) of DNA. […] (B) A 10-μl aliquot of each fraction was subjected to 8% SDS-PAGE and proteins visualized by Coomassie Blue staining. (C) Western blotting of fractions with anti-DNA-PKcs and anti-Ku80/Ku70 antibodies. (D) Recombinant ΔPH-PKBαT309P (PKB) was first incubated with S473K1 (5 μl), 10 μg/ml fetal calf thymus DNA, and 100 μM ATP in kinase buffer for different times. Aliquots of the reaction mixture were removed for assay of PKB activity as described in (11) or for Western blotting with pS473 and pT308 phospho-specific antibodies. […].
All steps were performed at 4° C. Four hundred plates (Ø […]) of HEK293 cells were harvested in ice-cold phosphate-buffered saline and homogenized in ice-cold buffer A (50 mM Tris-HCl pH 7.4, 300 mM sucrose, 1 mM dithiothreitol, 10 mM sodium fluoride, 0.1 mM sodium orthovanadate, 20 nM okadiac acid, 1 mM phenylmethanesulfonyl fluoride and 1 mM benzamidine) using a polytron homogenizer. The nuclear fraction was removed by centrifuging at 1000 g for 10 min and the resulting supernatant was further centrifuged at 100,000 g for 60 min. […]

T2 sequence (P78527 whole entry, one chain of several): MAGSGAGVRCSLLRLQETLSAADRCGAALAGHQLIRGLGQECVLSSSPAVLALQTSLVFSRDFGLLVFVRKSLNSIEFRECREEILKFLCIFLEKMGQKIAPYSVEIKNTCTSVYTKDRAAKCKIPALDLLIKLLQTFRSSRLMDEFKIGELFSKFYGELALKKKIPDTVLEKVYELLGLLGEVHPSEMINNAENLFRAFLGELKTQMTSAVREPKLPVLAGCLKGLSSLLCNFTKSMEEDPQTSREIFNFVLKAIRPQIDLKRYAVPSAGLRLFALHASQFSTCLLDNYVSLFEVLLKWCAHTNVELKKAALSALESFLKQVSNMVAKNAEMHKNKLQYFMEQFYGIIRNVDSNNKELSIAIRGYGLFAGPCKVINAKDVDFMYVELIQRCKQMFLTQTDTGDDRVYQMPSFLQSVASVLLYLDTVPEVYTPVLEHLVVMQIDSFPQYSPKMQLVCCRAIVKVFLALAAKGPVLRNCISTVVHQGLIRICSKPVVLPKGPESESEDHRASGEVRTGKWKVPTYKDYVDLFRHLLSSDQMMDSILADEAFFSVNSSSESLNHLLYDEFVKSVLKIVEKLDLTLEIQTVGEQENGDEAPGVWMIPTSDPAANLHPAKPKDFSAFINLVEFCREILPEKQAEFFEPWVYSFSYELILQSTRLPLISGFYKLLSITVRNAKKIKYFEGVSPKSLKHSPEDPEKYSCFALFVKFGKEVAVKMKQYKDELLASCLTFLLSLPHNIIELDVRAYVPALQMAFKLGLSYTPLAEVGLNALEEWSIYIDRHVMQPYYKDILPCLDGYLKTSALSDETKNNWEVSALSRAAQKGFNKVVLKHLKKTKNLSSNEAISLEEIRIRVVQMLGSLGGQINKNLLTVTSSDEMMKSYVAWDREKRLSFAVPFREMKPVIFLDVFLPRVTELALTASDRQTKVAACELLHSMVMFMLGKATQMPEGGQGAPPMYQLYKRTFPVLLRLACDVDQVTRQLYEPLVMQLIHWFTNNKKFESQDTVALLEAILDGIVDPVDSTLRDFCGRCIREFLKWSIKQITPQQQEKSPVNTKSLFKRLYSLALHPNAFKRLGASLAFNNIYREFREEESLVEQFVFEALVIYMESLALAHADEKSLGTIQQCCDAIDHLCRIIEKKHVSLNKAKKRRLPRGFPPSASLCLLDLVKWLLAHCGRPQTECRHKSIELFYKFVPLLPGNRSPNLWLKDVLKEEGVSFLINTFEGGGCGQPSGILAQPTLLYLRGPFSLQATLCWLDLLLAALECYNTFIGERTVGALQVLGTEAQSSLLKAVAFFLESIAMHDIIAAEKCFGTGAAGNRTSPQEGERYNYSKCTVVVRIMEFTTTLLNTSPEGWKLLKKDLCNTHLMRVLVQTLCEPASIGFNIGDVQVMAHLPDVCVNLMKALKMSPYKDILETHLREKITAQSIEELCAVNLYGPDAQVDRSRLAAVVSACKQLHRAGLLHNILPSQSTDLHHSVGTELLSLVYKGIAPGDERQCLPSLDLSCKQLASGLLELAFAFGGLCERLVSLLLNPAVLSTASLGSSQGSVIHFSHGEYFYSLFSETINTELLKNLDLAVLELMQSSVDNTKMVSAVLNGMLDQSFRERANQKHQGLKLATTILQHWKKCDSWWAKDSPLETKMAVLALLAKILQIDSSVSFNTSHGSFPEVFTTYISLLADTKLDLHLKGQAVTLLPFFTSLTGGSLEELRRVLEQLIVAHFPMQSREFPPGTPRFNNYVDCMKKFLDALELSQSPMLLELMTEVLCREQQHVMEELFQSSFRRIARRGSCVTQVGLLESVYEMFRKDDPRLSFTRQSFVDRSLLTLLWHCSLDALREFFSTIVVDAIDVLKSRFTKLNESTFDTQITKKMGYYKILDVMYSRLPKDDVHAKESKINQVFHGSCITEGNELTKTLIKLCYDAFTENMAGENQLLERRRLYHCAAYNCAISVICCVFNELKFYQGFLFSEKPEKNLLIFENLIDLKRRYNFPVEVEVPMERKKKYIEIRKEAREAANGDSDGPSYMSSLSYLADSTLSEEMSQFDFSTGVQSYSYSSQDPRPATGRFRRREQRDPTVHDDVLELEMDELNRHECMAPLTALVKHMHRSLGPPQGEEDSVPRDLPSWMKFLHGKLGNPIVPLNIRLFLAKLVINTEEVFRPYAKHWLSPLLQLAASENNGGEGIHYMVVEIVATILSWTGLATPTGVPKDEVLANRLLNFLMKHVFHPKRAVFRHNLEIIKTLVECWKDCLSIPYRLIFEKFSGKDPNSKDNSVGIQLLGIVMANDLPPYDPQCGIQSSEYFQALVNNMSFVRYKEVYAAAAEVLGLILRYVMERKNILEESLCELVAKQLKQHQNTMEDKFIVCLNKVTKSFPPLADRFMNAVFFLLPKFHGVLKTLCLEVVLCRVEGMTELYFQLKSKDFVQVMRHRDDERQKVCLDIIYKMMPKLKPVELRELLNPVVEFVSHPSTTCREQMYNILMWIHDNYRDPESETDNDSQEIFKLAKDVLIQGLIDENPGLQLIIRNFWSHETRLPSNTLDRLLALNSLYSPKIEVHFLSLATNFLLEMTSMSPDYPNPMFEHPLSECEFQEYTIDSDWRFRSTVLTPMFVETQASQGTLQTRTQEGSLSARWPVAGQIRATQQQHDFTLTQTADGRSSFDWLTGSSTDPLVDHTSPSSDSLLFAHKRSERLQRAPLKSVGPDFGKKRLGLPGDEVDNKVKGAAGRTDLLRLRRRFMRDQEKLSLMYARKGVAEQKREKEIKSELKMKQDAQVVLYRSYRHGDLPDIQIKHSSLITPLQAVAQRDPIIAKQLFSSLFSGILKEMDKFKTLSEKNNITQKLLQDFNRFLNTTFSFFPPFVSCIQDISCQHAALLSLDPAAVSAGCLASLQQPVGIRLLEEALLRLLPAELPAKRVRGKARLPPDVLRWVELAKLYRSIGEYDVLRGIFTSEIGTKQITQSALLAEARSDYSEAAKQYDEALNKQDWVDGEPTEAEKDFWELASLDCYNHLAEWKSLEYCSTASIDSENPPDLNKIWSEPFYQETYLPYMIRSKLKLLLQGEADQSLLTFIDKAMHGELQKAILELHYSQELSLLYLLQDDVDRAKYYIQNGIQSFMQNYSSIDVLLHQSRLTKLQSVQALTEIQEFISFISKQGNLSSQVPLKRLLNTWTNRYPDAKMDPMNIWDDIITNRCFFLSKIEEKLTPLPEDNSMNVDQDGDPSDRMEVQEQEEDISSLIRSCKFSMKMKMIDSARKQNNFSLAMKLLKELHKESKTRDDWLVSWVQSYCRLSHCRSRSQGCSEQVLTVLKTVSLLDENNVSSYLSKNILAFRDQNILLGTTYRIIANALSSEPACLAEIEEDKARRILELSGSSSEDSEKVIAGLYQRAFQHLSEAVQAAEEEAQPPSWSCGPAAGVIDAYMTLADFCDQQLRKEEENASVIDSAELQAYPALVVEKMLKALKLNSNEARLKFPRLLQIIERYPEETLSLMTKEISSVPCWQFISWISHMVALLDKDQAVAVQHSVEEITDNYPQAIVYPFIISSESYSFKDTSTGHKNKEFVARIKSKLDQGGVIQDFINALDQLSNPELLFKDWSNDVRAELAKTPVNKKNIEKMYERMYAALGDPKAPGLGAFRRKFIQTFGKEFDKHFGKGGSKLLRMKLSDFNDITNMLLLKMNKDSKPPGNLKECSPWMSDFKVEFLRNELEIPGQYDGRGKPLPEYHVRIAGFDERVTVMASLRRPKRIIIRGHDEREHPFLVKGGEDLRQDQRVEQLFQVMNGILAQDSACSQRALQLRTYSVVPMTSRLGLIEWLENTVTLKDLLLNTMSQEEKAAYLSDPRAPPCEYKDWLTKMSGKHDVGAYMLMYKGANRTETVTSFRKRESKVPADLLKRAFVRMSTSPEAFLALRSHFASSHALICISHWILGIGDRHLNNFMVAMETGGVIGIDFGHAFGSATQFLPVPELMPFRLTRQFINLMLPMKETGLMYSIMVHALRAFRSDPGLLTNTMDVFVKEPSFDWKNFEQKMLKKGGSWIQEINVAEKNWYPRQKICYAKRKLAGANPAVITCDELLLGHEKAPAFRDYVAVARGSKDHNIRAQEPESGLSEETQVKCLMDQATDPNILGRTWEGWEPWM

As for `N.N.[Cl][Pt][Cl]` [cisplatin], in the test with PKB, the “PKB activity and Ser-473 phosphorylation” value is reported as “inhibited”. Also, the DNA-PK activity result with DNA-PK is recorded as “decrease”.
For the compound `CN[C@@H]1C[C@H]2O[C@@](C)([C@@H]1OC)n1c3ccccc3c3c4c(c5c6ccccc6n2c5c31)C(=O)NC4` [staurosporine], on purified DNA-PK, the “phosphorylation of PKB catalyzed by purified DNA-PK” value was “resistant”. Besides, the S473K1 activity result on S473K1 is listed as “not affected”.
